Results published in publication PMC9369069, “Development of Sesamol Carbamate-L-Phenylalanine Prodrug Targeting L-Type Amino Acid Transporter1 (LAT1) as a Potential Antiproliferative Agent against Melanoma” (International Journal of Molecular Sciences, 2022).
Where two headings read alike, the source gives them in different places.

Target: T1, L-type amino acid transporter 1 (LAT1) (Homo sapiens, UniProt Q01650)
T1 construct: gene SLC7A5
Assay: cell-based

T1 sequence (Q01650 whole entry): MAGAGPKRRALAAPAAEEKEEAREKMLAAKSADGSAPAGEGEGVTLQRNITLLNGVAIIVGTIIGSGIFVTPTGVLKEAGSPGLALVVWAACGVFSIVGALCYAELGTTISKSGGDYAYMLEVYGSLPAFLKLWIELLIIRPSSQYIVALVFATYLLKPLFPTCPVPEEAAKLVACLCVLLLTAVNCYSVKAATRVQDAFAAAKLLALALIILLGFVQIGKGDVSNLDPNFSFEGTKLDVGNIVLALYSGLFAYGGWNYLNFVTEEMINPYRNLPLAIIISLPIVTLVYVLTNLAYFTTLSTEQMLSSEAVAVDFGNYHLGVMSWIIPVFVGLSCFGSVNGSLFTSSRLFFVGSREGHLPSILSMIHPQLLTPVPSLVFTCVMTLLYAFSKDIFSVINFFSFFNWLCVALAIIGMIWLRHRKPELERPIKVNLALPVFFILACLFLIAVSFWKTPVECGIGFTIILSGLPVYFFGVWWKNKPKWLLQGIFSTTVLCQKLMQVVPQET
T1 sequence (P08195 103-630 partner): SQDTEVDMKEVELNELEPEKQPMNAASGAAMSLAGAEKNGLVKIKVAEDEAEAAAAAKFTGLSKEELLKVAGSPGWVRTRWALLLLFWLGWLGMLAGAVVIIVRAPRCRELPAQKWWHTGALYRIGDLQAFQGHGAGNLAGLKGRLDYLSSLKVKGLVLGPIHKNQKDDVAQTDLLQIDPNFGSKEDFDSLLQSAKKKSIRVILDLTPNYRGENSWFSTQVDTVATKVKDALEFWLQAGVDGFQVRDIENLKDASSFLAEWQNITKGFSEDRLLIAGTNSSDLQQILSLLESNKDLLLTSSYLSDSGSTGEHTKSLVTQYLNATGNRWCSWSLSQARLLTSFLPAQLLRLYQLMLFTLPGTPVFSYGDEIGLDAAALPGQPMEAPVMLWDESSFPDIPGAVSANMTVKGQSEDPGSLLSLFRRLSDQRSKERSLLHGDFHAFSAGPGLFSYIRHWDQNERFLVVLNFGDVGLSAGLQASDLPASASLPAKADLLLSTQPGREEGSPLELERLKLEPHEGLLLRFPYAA

SMILES | IC50 (read-out: IC50) [µM] | IC50 [µM]
N[C@@H](Cc1ccccc1)C(=O)O [L-Phenylalanine] | 96.8 ± 11.5 | –
Oc1ccc2c(c1)OCO2 [Sesamol] | – | 4760 ± 219
N[C@@H](Cc1ccc(NC(=O)Oc2ccc3c(c2)OCO3)cc1)C(=O)O [4-sesamol carbamate-L-phenylalanine prodrug] | – | 631 ± 38
